Here are results for five molecules from ChEMBL document CHEMBL1909046, “DrugMatrix in vitro pharmacology data”.

The nature of data set [1]: DRUGMATRIX: GABAA, Muscimol, Central radioligand binding (ligand: [3H] Muscimol). As to conditions: Not Active = under 50% inhibition at 10 µM. It is filed as cell membranes, Rattus norvegicus, Wistar, Brain, Membrane.
The target in data set [2] is Platelet-activating factor receptor (Homo sapiens, UniProt P25105). Kind of data set: biochemical. Type of data set: tissue-based. As to conditions: platelet. Further: in other assays of this panel Not Active means under 50% inhibition at 10 µM.
Sequence of Platelet-activating factor receptor (P25105 whole entry): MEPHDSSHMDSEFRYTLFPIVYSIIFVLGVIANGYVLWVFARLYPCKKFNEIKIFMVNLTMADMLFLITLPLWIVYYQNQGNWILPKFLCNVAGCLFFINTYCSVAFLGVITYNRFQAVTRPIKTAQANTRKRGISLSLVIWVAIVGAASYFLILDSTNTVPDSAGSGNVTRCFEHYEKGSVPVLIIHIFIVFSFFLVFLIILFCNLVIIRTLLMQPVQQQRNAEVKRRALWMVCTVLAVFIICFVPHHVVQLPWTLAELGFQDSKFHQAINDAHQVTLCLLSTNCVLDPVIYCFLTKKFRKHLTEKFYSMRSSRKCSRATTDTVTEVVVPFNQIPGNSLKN
Another data set addresses Vasopressin V1a receptor (Homo sapiens, UniProt P37288). Type of data set: cell membranes, Membrane. The conditions noted are these: hek293.
In data set [3] the target is Vascular endothelial growth factor receptor 1 (Homo sapiens, UniProt P17948). Type of data set: cell-based. The conditions noted are these: huvec. Further: in other assays of this panel Not Active means under 50% inhibition at 10 µM.
Sequence of Vascular endothelial growth factor receptor 1 (P17948 whole entry): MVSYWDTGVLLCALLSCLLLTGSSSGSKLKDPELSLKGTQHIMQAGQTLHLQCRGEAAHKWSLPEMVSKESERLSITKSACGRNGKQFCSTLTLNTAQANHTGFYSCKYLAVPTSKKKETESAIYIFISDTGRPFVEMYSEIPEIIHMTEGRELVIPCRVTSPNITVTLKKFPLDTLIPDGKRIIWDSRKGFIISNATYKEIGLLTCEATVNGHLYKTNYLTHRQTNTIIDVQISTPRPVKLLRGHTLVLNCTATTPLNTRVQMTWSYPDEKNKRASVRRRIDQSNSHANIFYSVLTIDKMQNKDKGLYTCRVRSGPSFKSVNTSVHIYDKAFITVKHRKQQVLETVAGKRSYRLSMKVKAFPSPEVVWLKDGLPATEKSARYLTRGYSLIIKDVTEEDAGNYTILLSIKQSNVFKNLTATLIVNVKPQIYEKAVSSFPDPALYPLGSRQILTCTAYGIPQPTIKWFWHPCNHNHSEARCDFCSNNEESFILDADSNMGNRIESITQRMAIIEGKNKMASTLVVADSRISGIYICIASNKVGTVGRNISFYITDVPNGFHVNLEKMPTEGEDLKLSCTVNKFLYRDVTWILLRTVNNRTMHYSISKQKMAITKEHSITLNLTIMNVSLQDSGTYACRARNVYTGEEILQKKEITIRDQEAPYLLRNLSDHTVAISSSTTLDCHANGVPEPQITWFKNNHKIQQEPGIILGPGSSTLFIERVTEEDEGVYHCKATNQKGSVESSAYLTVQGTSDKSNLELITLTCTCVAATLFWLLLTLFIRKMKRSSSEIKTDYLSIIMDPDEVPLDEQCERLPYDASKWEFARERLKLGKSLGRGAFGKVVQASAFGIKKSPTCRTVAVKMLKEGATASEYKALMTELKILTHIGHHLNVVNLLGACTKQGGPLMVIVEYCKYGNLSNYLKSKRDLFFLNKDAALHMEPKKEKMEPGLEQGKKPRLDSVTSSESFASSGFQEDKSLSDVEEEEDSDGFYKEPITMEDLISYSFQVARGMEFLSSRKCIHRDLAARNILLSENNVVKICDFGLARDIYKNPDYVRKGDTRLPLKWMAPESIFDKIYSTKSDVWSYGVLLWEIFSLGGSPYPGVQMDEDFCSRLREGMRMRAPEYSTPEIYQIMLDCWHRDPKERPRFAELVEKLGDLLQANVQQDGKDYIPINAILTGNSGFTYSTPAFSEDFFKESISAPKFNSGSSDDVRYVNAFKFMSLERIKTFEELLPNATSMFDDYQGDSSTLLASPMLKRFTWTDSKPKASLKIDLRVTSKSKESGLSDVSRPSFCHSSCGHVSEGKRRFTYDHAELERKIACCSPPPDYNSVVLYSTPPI
A short description of data set [4]: DRUGMATRIX: Sodium/nucleoside co-transporter radioligand binding (ligand: nitrobenzylthioinosine). It is filed as cell membranes, Cavia porcellus, Dunkin-Hartley, Cerebral cortex, Membrane. As to conditions: Not Active = under 50% inhibition at 10 µM.
The target of another data set is T1, D(4) dopamine receptor (Homo sapiens, UniProt P21917).
T1 sequence (P21917 whole entry): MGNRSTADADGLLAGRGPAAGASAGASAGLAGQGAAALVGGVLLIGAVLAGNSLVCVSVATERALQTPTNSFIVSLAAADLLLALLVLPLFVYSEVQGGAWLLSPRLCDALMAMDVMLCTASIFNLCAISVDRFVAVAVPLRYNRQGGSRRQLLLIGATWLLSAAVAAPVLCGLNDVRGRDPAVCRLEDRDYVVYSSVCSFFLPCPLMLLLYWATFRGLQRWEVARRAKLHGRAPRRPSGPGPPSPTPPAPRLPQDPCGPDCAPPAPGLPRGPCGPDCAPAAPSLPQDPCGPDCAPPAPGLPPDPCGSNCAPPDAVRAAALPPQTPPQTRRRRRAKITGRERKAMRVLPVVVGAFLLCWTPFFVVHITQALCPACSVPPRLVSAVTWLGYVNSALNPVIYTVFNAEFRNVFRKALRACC
The data set is described as follows: DRUGMATRIX: Dopamine D4.2 radioligand binding (ligand: [3H] Spiperone). It is filed as cell membranes, CHO-K1, Membrane. The conditions noted are these: cho-k1; Not Active = under 50% inhibition at 10 µM.

The nature of data set [5]: DRUGMATRIX: Imidazoline I2, Central radioligand binding (ligand: [3H] Idazoxan). As to conditions: Not Active = under 50% inhibition at 10 µM. Type of data set: cell membranes, Rattus norvegicus, Wistar, Cerebral cortex, Membrane.
The target in another data set is Nitric oxide synthase 1 (Rattus norvegicus, UniProt P29476). It is filed as tissue-based, Cerebellum. Further: in other assays of this panel Not Active means under 50% inhibition at 10 µM.
Data set [6] addresses Mitogen-activated protein kinase 3 (Homo sapiens, UniProt P27361). The data set is described as follows: DRUGMATRIX: Protein Serine/Threonine Kinase, ERK1 enzyme inhibition (substrate: Myelin Basic Protein). Further details: species or system Escherichia coli. The conditions noted are these: Not Active = under 50% inhibition at 10 µM.
The target in another data set is Histamine H2 receptor (Homo sapiens, UniProt P25021). It is filed as cell membranes, CHO-K1, Membrane. The conditions noted are these: cho-k1. Further: in other assays of this panel Not Active means under 50% inhibition at 10 µM.
Sequence of Histamine H2 receptor (P25021 whole entry): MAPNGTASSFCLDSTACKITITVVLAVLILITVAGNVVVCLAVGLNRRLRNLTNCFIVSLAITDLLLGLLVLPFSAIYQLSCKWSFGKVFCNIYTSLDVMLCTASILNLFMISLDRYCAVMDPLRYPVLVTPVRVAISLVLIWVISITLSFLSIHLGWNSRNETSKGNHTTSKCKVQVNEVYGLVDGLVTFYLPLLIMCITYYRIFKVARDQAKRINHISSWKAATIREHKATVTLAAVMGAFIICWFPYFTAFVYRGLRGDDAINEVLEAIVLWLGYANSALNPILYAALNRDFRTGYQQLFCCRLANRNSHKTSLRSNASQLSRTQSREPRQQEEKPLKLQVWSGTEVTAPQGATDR
The target of data set [7] is C-C chemokine receptor type 5 (Homo sapiens, UniProt P51681). It is filed as cell membranes, Membrane. The conditions noted are these: hek293. Further: in other assays of this panel Not Active means under 50% inhibition at 10 µM.
Sequence of C-C chemokine receptor type 5 (P51681 whole entry): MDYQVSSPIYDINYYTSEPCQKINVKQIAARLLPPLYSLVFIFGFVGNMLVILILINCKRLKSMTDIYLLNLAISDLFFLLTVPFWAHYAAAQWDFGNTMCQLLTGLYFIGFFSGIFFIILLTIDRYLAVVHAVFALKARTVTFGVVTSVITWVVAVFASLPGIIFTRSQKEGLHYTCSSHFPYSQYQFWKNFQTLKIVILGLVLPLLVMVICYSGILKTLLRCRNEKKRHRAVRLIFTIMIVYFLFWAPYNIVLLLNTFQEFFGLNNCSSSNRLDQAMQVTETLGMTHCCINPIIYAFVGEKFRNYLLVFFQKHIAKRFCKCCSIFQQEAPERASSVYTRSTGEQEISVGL
In data set [8] the target is T2, Type-2 angiotensin II receptor (Homo sapiens, UniProt P50052). Further: in other assays of this panel Not Active means under 50% inhibition at 10 µM.
T2 sequence (P50052 whole entry): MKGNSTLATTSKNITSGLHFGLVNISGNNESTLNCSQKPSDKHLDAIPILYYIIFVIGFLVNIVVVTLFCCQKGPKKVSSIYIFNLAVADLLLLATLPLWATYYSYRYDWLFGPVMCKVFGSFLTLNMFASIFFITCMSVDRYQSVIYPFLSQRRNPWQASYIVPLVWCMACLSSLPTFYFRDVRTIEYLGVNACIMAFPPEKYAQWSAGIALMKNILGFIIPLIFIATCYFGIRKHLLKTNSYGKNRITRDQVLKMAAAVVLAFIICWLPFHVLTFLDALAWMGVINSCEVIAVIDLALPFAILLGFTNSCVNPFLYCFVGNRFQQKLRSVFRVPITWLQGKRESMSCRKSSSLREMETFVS
It is filed as cell-based. The conditions noted are these: cho-k1.

The target of data set [9] is T3, Cysteinyl leukotriene receptor 1 (Homo sapiens, UniProt Q9Y271). Further: in other assays of this panel Not Active means under 50% inhibition at 10 µM.
T3 sequence (Q9Y271 whole entry): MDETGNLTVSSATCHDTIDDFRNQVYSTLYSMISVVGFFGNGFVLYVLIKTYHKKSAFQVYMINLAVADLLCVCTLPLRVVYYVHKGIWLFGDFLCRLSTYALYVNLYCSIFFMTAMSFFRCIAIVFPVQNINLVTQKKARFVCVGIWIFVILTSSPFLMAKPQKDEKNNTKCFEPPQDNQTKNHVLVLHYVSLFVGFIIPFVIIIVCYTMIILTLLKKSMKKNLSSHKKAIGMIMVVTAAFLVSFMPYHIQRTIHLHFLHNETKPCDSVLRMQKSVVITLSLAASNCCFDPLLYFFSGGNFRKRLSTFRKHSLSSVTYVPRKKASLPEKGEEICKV
Type of data set: cell membranes, CHO-K1, Membrane. As to conditions: cho-k1.

A short description of data set [10]: DRUGMATRIX: ATPase, Na+/K+ enzyme inhibition (substrate: ATP). Type of data set: tissue-based, Sus scrofa, Heart. As to conditions: Not Active = under 50% inhibition at 10 µM.
The next data set concerns the target Cannabinoid receptor 1 (Homo sapiens, UniProt P21554). Type of data set: cell membranes, Membrane. The conditions noted are these: chem-1. Further: in other assays of this panel Not Active means under 50% inhibition at 10 µM.
The target of a further data set is Cytochrome P450 2E1 (Homo sapiens, UniProt P05181). The conditions noted are these: bti-tn-5b1-4. Further: in other assays of this panel Not Active means under 50% inhibition at 10 µM.
Sequence of Cytochrome P450 2E1 (P05181 whole entry): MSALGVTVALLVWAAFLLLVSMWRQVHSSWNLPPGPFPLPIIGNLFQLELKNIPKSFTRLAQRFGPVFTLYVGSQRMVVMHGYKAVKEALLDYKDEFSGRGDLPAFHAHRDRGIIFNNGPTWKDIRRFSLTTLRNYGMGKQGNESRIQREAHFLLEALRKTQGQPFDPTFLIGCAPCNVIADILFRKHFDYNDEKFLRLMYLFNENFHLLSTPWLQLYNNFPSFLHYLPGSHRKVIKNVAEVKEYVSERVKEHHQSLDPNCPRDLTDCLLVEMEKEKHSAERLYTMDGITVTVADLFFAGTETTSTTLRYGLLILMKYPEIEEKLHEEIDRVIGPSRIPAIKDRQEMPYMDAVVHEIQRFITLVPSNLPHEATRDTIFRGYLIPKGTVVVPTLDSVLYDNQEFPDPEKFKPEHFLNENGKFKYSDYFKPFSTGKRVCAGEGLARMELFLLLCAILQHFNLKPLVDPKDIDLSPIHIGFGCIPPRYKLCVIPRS
The target in another data set is T4, Adenosine receptor A3 (Homo sapiens, UniProt P0DMS8).
T4 sequence (P0DMS8 whole entry): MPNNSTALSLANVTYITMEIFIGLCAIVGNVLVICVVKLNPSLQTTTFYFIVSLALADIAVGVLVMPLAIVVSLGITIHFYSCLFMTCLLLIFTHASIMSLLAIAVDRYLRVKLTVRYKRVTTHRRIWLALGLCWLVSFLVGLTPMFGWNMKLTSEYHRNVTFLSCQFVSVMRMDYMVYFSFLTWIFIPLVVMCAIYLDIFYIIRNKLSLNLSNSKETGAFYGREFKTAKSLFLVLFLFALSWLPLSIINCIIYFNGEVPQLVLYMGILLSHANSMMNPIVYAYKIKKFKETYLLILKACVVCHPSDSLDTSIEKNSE
It is filed as cell membranes, CHO-K1, Membrane.

For the next data set, the target named is T5, Substance-K receptor (Homo sapiens, UniProt P21452). Further: in other assays of this panel Not Active means under 50% inhibition at 10 µM.
T5 sequence (P21452 whole entry): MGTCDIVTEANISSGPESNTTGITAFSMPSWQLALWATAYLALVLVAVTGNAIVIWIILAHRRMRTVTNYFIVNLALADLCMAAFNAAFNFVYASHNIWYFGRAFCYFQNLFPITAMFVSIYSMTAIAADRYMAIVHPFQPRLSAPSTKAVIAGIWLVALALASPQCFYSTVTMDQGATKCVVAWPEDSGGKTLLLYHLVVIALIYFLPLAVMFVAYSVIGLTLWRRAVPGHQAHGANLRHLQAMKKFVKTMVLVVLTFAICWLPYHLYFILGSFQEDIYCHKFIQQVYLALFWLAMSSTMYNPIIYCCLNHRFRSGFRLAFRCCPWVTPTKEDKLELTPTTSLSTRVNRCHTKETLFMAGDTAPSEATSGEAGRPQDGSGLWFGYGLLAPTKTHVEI
It is filed as cell membranes, CHO, Membrane. The conditions noted are these: cho.

Sequence of Cannabinoid receptor 1 (P21554 whole entry): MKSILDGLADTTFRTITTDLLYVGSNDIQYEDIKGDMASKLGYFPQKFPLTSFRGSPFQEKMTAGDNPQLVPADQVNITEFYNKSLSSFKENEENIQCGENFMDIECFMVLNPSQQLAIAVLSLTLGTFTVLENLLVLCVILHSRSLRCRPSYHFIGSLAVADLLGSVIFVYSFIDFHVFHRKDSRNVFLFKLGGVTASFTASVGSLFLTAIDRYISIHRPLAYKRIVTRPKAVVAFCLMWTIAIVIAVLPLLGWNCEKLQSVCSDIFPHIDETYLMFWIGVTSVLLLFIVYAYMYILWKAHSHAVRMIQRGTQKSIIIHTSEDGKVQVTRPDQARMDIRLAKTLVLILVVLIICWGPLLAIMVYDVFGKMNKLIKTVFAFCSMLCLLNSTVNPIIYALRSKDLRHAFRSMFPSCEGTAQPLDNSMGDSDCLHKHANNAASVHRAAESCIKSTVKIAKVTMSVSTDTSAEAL
Sequence of Mitogen-activated protein kinase 3 (P27361 whole entry): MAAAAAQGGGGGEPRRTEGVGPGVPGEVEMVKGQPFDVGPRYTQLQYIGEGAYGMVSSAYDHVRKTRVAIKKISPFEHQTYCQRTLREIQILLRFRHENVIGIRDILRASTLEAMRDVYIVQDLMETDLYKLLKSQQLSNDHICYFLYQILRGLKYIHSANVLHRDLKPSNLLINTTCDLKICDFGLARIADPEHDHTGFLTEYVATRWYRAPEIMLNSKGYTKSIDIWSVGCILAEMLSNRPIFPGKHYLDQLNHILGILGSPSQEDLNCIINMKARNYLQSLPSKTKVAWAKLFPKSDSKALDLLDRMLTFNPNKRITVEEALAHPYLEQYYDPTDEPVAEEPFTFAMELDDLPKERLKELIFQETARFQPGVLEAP
Sequence of Vasopressin V1a receptor (P37288 whole entry): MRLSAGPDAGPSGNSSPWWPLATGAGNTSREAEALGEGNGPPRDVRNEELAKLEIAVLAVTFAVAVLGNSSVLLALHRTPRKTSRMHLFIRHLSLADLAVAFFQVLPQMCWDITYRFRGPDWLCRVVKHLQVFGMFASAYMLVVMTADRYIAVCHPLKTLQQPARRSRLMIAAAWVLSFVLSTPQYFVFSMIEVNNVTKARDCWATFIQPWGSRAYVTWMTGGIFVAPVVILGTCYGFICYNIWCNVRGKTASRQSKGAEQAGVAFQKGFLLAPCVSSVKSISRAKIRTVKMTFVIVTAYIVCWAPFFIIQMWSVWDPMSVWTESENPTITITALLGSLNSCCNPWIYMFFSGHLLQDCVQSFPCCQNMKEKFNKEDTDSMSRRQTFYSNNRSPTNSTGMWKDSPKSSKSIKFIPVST

As for `NC(=O)c1ccccc1O` [SALICYLAMIDE], the IC50 result (in data set [1]; in data set [2]; at Vasopressin V1a receptor; in [3]; in [4]; at D(4) dopamine receptor) was “Not Active” each time. Moreover, the IC50 entry (in [5]; at Nitric oxide synthase 1; in data set [6]; against Histamine H2 receptor; in data set [7]; in data set [8]) was “Not Active” throughout. Moreover, the IC50 result (in [9]; in [10]; on Cannabinoid receptor 1; against Cytochrome P450 2E1; at Adenosine receptor A3 (cho-k1); against Substance-K receptor) was “Not Active” in each case. Also, the Ki result (in data set [1]; in data set [4]; in data set [5]; in data set [10]; on Cytochrome P450 2E1) was “Not Active” throughout.
With `Cc1ncc([N+](=O)[O-])n1CC(C)O` (stereo unspecified) [SECNIDAZOLE], the IC50 result (in data set [1]; in data set [2]; against Vasopressin V1a receptor; in data set [3]; in data set [4]; at D(4) dopamine receptor) was “Not Active” in each case. In addition, the IC50 entry (in data set [5]; at Nitric oxide synthase 1; in data set [6]; at Histamine H2 receptor; in data set [7]; in data set [8]) was “Not Active” in each case. In addition, the IC50 result (in data set [9]; in [10]; on Cannabinoid receptor 1; against Cytochrome P450 2E1; against Adenosine receptor A3 (cho-k1); at Substance-K receptor) was “Not Active” in each case. Further, the Ki entry (in [1]; in data set [4]; in data set [5]; in data set [10]; at Cytochrome P450 2E1) was “Not Active” in each case.
As to `CC(=O)S[C@@H]1CC2=CC(=O)CC[C@]2(C)[C@H]2CC[C@@]3(C)[C@@H](CC[C@@]34CCC(=O)O4)[C@H]12` [SPIRONOLACTONE], the IC50 result (in data set [1]; in data set [2]; at Vasopressin V1a receptor; in data set [3]; in [4]; at D(4) dopamine receptor) was “Not Active” each time. Also, the IC50 entry (in [5]; against Nitric oxide synthase 1; in data set [6]; at Histamine H2 receptor; in data set [7]; in [8]) was “Not Active” in each case. Further, the IC50 result (in [9]; in data set [10]; at Cannabinoid receptor 1; against Cytochrome P450 2E1; on Adenosine receptor A3 (cho-k1); against Substance-K receptor) was “Not Active” each time. The Ki result (in [1]; in data set [4]; in data set [5]; in data set [10]; on Cytochrome P450 2E1) was “Not Active” each time.
As to `C[C@]12Cc3c[nH]nc3C[C@@H]1CC[C@@H]1[C@@H]2CC[C@@]2(C)[C@H]1CC[C@]2(C)O` [STANOZOLOL], the IC50 result (in data set [1]; in data set [2]; against Vasopressin V1a receptor; in [3]; in data set [4]; at D(4) dopamine receptor) was “Not Active” throughout. The IC50 result (in data set [5]; on Nitric oxide synthase 1; in data set [6]; on Histamine H2 receptor; in [7]; in data set [8]) was “Not Active” throughout. In addition, the IC50 result was “Not Active” in [9]; “Not Active” in data set [10]; “Not Active” at Cannabinoid receptor 1; “Not Active” against Cytochrome P450 2E1; 8.33 µM at Adenosine receptor A3 (read-out: IC50); “Not Active” on Substance-K receptor. For the same molecule, the Ki result in [1] was “Not Active”; in [4] it was “Not Active”; in data set [5], “Not Active”; in [10], “Not Active”; on Cytochrome P450 2E1, “Not Active”; at Adenosine receptor A3 (read-out: Ki), 4.71 µM.
On to `CN(N=O)C(=O)N[C@@H](C=O)[C@@H](O)[C@H](O)[C@H](O)CO` [STREPTOZOCIN], for which the IC50 result (in data set [1]; in data set [2]; against Vasopressin V1a receptor; in data set [3]; in [4]; on D(4) dopamine receptor) was “Not Active” each time. In addition, the IC50 entry (in data set [5]; against Nitric oxide synthase 1; in data set [6]; against Histamine H2 receptor; in data set [7]; in data set [8]) was “Not Active” each time. For the same molecule, the IC50 entry (in data set [9]; in data set [10]; against Cannabinoid receptor 1; on Cytochrome P450 2E1; at Adenosine receptor A3 (cho-k1); at Substance-K receptor) was “Not Active” throughout. The Ki entry (in [1]; in data set [4]; in [5]; in [10]; on Cytochrome P450 2E1) was “Not Active” throughout.

By IC50 is commonly meant the concentration that gives 50% inhibition. Broadly, the Ki is the dissociation constant of the complex between target and ligand, obtained from inhibition or displacement.
